In ChEMBL document CHEMBL4354881, “Optimization of Potent ATAD2 and CECR2 Bromodomain Inhibitors with an Atypical Binding Mode” (J Med Chem, 2020):

What was measured:
[1] = molecular target: Chromatin remodeling regulator CECR2 (Homo sapiens, UniProt Q9BXF3); test: Displacement of Alexa Fluor 647-labeled GSK tracer from FLAG-6His-Tev-fused CECR2 (424 to 543 residue) (unknown origin) measured after 15 mins by TR-FRET assay
[2] = molecular target: Bromodomain-containing protein 4 (Homo sapiens, UniProt O60885, Y390A); test: Displacement of Alexa Fluor 647-labeled ligand from BRD4 BD1 Y390A mutant (1 to 477 residue) (unknown origin) measured after 30 mins by TR-FRET assay
[3] = molecular target: T1, ATPase family AAA domain-containing protein 2 (Homo sapiens, UniProt Q6PL18); test: Displacement of Alexa Fluor 488-labeled ligand from FLAG-6His-Tev-fused ATAD2 (981 to 1121 residue) (unknown origin) measured after 30 mins by TR-FRET assay
T1 sequence (Q6PL18 whole entry): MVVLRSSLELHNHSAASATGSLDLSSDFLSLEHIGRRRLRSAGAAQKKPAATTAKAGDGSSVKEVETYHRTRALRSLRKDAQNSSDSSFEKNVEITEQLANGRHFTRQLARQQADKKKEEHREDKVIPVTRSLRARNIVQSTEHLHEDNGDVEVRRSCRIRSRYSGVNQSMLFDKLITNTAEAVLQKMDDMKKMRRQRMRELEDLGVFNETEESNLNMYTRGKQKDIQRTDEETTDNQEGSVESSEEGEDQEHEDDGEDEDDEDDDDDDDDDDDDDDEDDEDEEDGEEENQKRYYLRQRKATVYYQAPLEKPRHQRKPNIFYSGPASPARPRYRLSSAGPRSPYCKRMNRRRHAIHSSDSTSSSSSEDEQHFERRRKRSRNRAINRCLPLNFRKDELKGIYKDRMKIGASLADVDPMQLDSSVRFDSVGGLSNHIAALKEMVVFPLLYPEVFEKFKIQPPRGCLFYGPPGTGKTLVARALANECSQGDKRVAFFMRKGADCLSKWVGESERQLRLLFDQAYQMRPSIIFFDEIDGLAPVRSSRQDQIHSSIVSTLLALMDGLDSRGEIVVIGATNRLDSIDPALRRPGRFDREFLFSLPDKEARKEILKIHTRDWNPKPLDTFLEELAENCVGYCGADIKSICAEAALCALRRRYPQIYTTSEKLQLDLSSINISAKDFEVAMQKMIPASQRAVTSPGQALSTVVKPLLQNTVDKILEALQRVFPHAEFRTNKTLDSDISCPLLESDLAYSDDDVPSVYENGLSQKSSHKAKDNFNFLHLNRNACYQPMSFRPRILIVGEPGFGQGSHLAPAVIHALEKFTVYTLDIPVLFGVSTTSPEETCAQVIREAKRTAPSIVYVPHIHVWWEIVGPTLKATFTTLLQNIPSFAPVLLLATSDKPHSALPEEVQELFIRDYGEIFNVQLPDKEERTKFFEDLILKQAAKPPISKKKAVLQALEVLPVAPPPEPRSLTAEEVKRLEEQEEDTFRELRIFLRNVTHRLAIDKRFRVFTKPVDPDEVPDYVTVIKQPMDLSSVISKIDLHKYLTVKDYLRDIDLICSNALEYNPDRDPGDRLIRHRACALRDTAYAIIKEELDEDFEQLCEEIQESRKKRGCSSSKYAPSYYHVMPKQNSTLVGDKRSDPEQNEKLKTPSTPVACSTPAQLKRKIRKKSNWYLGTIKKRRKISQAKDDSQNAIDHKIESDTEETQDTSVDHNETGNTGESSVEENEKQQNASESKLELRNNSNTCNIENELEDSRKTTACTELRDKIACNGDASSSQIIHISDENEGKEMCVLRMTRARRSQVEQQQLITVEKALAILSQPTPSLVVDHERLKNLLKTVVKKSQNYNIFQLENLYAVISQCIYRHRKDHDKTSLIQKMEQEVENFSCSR

[4] = Permeability of the compound by artificial lipid membrane-based method; type: ADME; details: not told; read-out: permeability

Sequence of Chromatin remodeling regulator CECR2 (Q9BXF3 whole entry, the tested form may be a part): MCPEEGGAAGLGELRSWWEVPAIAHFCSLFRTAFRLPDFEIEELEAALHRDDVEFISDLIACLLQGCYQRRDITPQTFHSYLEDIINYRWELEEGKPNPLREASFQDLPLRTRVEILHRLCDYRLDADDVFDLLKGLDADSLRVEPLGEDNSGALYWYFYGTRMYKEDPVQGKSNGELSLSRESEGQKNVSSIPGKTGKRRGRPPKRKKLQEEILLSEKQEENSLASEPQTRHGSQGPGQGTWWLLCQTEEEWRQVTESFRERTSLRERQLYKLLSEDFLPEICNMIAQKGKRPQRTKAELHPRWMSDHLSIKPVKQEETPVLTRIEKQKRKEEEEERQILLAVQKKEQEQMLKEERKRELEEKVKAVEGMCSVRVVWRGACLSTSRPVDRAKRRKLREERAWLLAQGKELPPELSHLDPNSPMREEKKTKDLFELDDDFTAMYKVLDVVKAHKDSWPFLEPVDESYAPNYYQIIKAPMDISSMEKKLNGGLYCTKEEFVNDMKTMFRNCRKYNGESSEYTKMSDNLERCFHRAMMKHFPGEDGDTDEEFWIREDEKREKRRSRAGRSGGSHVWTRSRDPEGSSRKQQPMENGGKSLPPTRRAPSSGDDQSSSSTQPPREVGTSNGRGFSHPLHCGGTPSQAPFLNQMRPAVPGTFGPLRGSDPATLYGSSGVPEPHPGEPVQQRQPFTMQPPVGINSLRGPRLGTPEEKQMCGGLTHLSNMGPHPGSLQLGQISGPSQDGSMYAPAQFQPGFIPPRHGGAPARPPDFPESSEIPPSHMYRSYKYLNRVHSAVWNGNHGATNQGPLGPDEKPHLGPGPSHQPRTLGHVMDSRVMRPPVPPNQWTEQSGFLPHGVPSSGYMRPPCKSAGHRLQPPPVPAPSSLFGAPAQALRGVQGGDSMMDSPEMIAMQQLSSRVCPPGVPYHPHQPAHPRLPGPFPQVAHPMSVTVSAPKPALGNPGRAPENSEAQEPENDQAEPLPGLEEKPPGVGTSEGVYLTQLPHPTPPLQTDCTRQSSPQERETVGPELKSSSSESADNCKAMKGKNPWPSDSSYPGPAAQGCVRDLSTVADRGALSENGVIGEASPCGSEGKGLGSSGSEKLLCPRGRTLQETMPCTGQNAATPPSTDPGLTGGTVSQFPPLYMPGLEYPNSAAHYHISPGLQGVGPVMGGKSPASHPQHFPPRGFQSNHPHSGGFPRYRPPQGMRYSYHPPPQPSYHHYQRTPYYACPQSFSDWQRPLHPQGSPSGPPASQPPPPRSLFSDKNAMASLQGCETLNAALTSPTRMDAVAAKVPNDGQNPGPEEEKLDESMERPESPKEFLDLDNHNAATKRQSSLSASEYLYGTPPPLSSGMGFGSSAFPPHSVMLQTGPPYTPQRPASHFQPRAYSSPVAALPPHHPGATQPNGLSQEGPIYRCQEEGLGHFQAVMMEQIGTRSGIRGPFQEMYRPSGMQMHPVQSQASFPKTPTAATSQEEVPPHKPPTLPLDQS

IC50 [1]	IC50 [2]	IC50 [3]	Papp [4]	SMILES
79400 nM	200000 nM	31600 nM	27 ×10⁻⁶ cm/s	CC(=O)Nc1ccc(Cl)c(S(=O)(=O)N2CCCC2)c1
> 100000 nM	> 50100 nM	> 100000 nM		O=C(CN1C(=O)CNC1=O)Nc1ccc(Cl)c(S(=O)(=O)C2CCCCC2)c1
39.8 nM	25100 nM	3160 nM		CN1CCc2c(nnn2CC(=O)Nc2ccc(Br)c(S(=O)(=O)N3CC[C@@H](C4CC4)C3)c2)C1
251 nM	25100 nM	1000 nM		C[C@H]1CCN(S(=O)(=O)c2cc(NC(=O)Cc3noc4ccccc34)ccc2Br)C1
251 nM	15800 nM	2510 nM		C[C@H]1CCN(S(=O)(=O)c2cc(NC(=O)Cn3nnc4c3CCNC4)ccc2Br)C1
31600 nM	> 50100 nM	2510 nM		O=C(CN1C(=O)CNC1=O)Nc1ccc(Cl)c(S(=O)(=O)N2CCCCC2)c1
251 nM	> 50100 nM	1260 nM		C[C@H]1CCN(S(=O)(=O)c2cc(NC(=O)Cn3cc(CN(C)C)nn3)ccc2Br)C1
126 nM	> 50100 nM	100 nM		C[C@H]1CCN(S(=O)(=O)c2cc(NC(=O)CN3C(=O)N[C@](C)(C4CC4)C3=O)ccc2Br)C1
12600 nM	> 50100 nM	1260 nM		O=C(CN1C(=O)CNC1=O)Nc1ccc(Cl)c(S(=O)(=O)N2CCCCCC2)c1
1580 nM	> 501000 nM	1000 nM	10 ×10⁻⁶ cm/s	CC1(C2CC2)NC(=O)N(CC(=O)Nc2ccc(Cl)c(S(=O)(=O)N3CCCC3)c2)C1=O (racemic)
2000 nM	20000 nM	251 nM		C[C@@H]1CN(S(=O)(=O)c2cc(NC(=O)CN3C(=O)CNC3=O)ccc2Cl)C[C@H]1C (racemic)
126 nM	39800 nM	25.1 nM		C[C@@H]1CN(S(=O)(=O)c2cc(NC(=O)CN3C(=O)NC(C)(C4CC4)C3=O)ccc2Br)C[C@H]1C (relative stereo)
20000 nM	> 50100 nM	50100 nM	12 ×10⁻⁶ cm/s	O=C(CN1CCCC1=O)Nc1ccc(Cl)c(S(=O)(=O)N2CCCC2)c1
1580 nM	> 50100 nM	1260 nM	5.4 ×10⁻⁶ cm/s	O=C(CN1C(=O)COC1=O)Nc1ccc(Cl)c(S(=O)(=O)N2CCCC2)c1
79.4 nM	> 50100 nM	3980 nM		C[C@H]1CCN(S(=O)(=O)c2cc(NC(=O)Cn3nncc3CN(C)C)ccc2Br)C1
79400 nM	39800 nM	12600 nM		CN(C)S(=O)(=O)c1cc(NC(=O)CN2C(=O)CNC2=O)ccc1Cl
20000 nM	> 50100 nM	2000 nM		C[C@@H]1CN(S(=O)(=O)c2cc(NC(=O)CN3C(=O)CNC3=O)ccc2Cl)C[C@@H]1C
100 nM	> 50100 nM	1580 nM		CC(=O)N1CCc2c(nnn2CC(=O)Nc2ccc(Br)c(S(=O)(=O)N3CC[C@H](C)C3)c2)C1
251 nM	50100 nM	1000 nM		COCc1cnnn1CC(=O)Nc1ccc(Br)c(S(=O)(=O)N2CC[C@H](C)C2)c1

Further lines, the compound ahead of its results:

SMILES	IC50 [1]	IC50 [2]	IC50 [3]	Papp [4]
Cc1nnn(CC(=O)Nc2ccc(Br)c(S(=O)(=O)N3CC[C@H](C)C3)c2)c1C	1000 nM	> 50100 nM	6310 nM	
C[C@H]1CCN(S(=O)(=O)c2cc(NC(=O)Cn3ccnn3)ccc2Br)C1	3980 nM	> 50100 nM	3980 nM	
O=C(CN1C(=O)CNC1=O)Nc1ccc(Cl)c(S(=O)(=O)N2CCC(C3CC3)C2)c1 (racemic)	501 nM	> 50100 nM	501 nM	
CC1CCCN1S(=O)(=O)c1cc(NC(=O)CN2C(=O)CNC2=O)ccc1Cl (racemic)	7940 nM	31600 nM	2510 nM	
C[C@@H]1CCN(S(=O)(=O)c2cc(NC(=O)CN3C(=O)CNC3=O)ccc2Cl)C1	5010 nM	> 50100 nM	1000 nM	
CCCc1cnnn1CC(=O)Nc1ccc(Br)c(S(=O)(=O)N2CC[C@H](C)C2)c1	79.4 nM	10000 nM	3160 nM	
C[C@H]1CCN(S(=O)(=O)c2cc(NC(=O)Cn3nnc4c3CN(C)CC4)ccc2Br)C1	251 nM	> 50100 nM	2000 nM	
O=C(CN1C(=O)CNC1=O)Nc1ccc(Cl)c(S(=O)(=O)n2ccnc2)c1	> 100000 nM	> 50100 nM	> 100000 nM	
C[C@H]1CCN(S(=O)(=O)c2cc(NC(=O)Cn3nnc4c3CCN(C)C4)ccc2Br)C1	50.1 nM	> 50100 nM	2000 nM	
CC1(C)NC(=O)N(CC(=O)Nc2ccc(Cl)c(S(=O)(=O)N3CCCC3)c2)C1=O	5010 nM	> 50100 nM	1580 nM	1.8 ×10⁻⁶ cm/s
C[C@H]1CCN(S(=O)(=O)c2cc(NC(=O)CN3C(=O)CNC3=O)ccc2Cl)C1	3160 nM	> 50100 nM	794 nM	
CC(C)N1CCc2c(nnn2CC(=O)Nc2ccc(Br)c(S(=O)(=O)N3CC[C@H](C)C3)c2)C1	31.6 nM	50100 nM	2000 nM	
CN1CCc2c(nnn2CC(=O)Nc2ccc(Cl)c(S(=O)(=O)N3CC[C@@H](C4CC4)C3)c2)C1	126 nM	39800 nM	6310 nM	
CC1(C)CCN(S(=O)(=O)c2cc(NC(=O)CN3C(=O)CNC3=O)ccc2Cl)C1	25100 nM	> 50100 nM	3160 nM	
C[C@H]1CCN(S(=O)(=O)c2cc(NC(=O)Cn3c(=O)oc4ccccc43)ccc2Br)C1	63.1 nM	10000 nM	2000 nM	
COCc1cn(CC(=O)Nc2ccc(Br)c(S(=O)(=O)N3CC[C@H](C)C3)c2)nn1	1580 nM	> 50100 nM	2510 nM	
CC1NC(=O)N(CC(=O)Nc2ccc(Cl)c(S(=O)(=O)N3CCCC3)c2)C1=O (racemic)	6310 nM	> 50100 nM	1260 nM	1.2 ×10⁻⁶ cm/s
CCCc1cn(CC(=O)Nc2ccc(Br)c(S(=O)(=O)N3CC[C@H](C)C3)c2)nn1	1580 nM	39800 nM	1580 nM	
COCC1CCN(S(=O)(=O)c2cc(NC(=O)CN3C(=O)CNC3=O)ccc2Cl)C1 (racemic)	3980 nM	> 50100 nM	1000 nM	
C[C@@]1(C2CC2)NC(=O)N(CC(=O)Nc2ccc(Br)c(S(=O)(=O)N3CCCC3)c2)C1=O	398 nM	> 50100 nM	251 nM	
C[C@H]1CCN(S(=O)(=O)c2cc(NC(=O)Cn3c(=O)[nH]c4ccccc43)ccc2Br)C1	501 nM	> 50100 nM	1260 nM	
CCC1CCN(S(=O)(=O)c2cc(NC(=O)CN3C(=O)CNC3=O)ccc2Cl)C1 (racemic)	1260 nM	> 50100 nM	631 nM	
C[C@H]1CCN(S(=O)(=O)c2cc(NC(=O)Cn3nnc4ccccc43)ccc2Br)C1	200 nM	15800 nM	2000 nM	
O=C(CN1C(=O)CCC1=O)Nc1ccc(Cl)c(S(=O)(=O)N2CCCC2)c1	3980 nM	> 50100 nM	1260 nM	4.2 ×10⁻⁶ cm/s
O=C(CN1C(=O)CNC1=O)Nc1ccc(Cl)c(S(=O)(=O)N2CCC3(CC3)C2)c1	3980 nM	> 50100 nM	1000 nM	
C[C@H]1CCN(S(=O)(=O)c2cc(NC(=O)Cc3coc4ccccc34)ccc2Br)C1	7940 nM	> 50100 nM	2510 nM	
CCN1CCc2c(nnn2CC(=O)Nc2ccc(Br)c(S(=O)(=O)N3CC[C@H](C)C3)c2)C1	50.1 nM	31600 nM	2510 nM	
